Reference: patent US9670197B2, “Small molecule modifiers of the Hec1-Nek2 interaction in G2/M” (The Regents of the University of California, priority 2013, dated 2017)

How the values were obtained:
HeLa = experiment: Cancer cell growth inhibition, HeLa; assay type: cell-based; conditions: Homo sapiens; Table 2, Cervical, HeLa; read-out: cancer cell growth suppression
Protocol: (§1) Cell lines and establishment of stable cell lines. Human breast cancer cell lines MDA-MB-231 and MDA-MB-468, osteosarcoma line U20S, cervical adenocarcinoma line HeLa, and normal skin fibroblast Hs27 were maintained in DMEM medium (Invitrogen, Grand Island, N.Y.) supplemented 10% fetal bovine serum (FBS) and 1% penicillin-streptomycin. The leukemia cell line K562 and glioblastoma cell line T98G were grown in RPMI 1640 supplemented 10% FBS and 1% penicillin-streptomycin. Normal mammary gland epithelial cell line MCF10A was cultured in DMEM/F12 (50:50) plus 5% horse serum, 0.1 μg/mL cholera toxin, 10 μg/mL insulin, 0.5 μg/mL hydrocortisone, and 20 ng/mL epidermal growth factor. To establish MDA-MB-468 cells that stably expressed each individual GFP-Hec1 deletion construct described above, cells were infected with retrovirus expressing GFP-Hec1 WT, GFP-Hec1 W395A and GFP-Hec1 WLK/AAA, and were selected with 2 μg/ml puromycin.

MB468 = experiment: Cancer cell growth inhibition, MB468 (MDA-MB-468); assay type: cell-based; conditions: Homo sapiens, Table 2, Breast adenocarcinoma, read-out: cancer cell growth suppression
K562 = experiment: Cancer cell growth inhibition, K562 leukemia; assay type: cell-based; conditions: Homo sapiens, Table 2, Leukemia, read-out: cancer cell growth suppression
Protocol: as §1

HS27 = experiment: Growth inhibition, normal skin fibroblast HS27; assay type: cell-based; conditions: for IC50: Homo sapiens, Table 2, Fibroblast, HS27, read-out: cell growth suppression; for growth inhibitory effect on non-tumorgenic fibroblast cells: data not shown
Protocol: as §1

[1] = system: MDA-MB-468 breast cancer cells tumor xenografts; experiment: Breast tumor xenograft model; assay type: in vivo, athymic nude mice; conditions: versus vehicle; for tumor growth rate: thrice-weekly i.p., 10 or 50 mg/kg INH41, 5 or 20 mg/kg INH154, 6.5 weeks; for percentage of proliferating tumor cells (BrdU staining) / phosphorylation of Hec1 at S165 in tumors: tumors harvested one week after last injection
Excerpt: INH inhibition of breast tumor growth in xenograft model. We performed in vivo xenograft mouse experiments to examine the efficacy of INHs in accordance with guidelines and protocols of the University of California at Irvine Animal Research Committee. MDA-MB-468 breast cancer cells (2×10^6) were inoculated into mammary fat pads of 6-8 week old athymic nude mice mice (nu/nu; Harlan Sprague-Dawley Inc., Indianapolis, Ind.) to form tumor xenografts. […] Administration of control and INH treatments was carried out for 6.5 weeks and tumor sizes were measured. Mice body weights and tumor sizes were measured twice weekly. Tumor volume was calculated as (length×width^2)/2 (in mm), and data were presented as mean tumor volume±SEM.
One week after the last injections were administered, mice were sacrificed and their tumors were harvested for immunohistochemistry analysis. […] Error bars represent SE (n=4) in FIGS. 2C and 2D.
Immunohistochemistry analysis was conducted as follows. Paraffin-embedded tumor sections (5 μm) were incubated with primary antibody, counterstained with hematoxylin, and detected using a LSAB™ kit (DakoCytomation) according to the manufacturer's instructions. BrdU antibody was purchased from GeneTex, Irvine, Calif. and Hec1 pS165 antibody was prepared as described in Wei et al. Phosphorylation of the Ndc80 complex protein, HEC1, by Nek2 kinase modulates chromosome alignment and signaling of the spindle assembly checkpoint. Molecular biology of the cell 22, 3584-3594 (2011), hereby incorporated by reference in its entirety.

HeLa cells [2] = experiment: Mitotic abnormalities in HeLa cells; assay type: cell-based, human; conditions: for chromosomal misalignment: 24 hrs of treatment, versus DMSO
Excerpt: (§2) INH-triggered mitotic catastrophe. […] Error bars represent SE, n=>200 per sample in FIG. 3A. […] Error bars represent SE n=200 in FIG. 3B. Over time, the accumulation of chromosomal and spindle abnormalities led to cell death.

HeLa cells [3] = experiment: Apoptosis assay, flow cytometry with Annexin-V staining; assay type: cell-based, human; conditions: after 48 hours, DMSO 1.8%
Protocol: as §2
The apoptosis assay was conducted as follows. 1×10^6 cells were collected and resuspended in 100 μl binding buffer (10 mM HEPES, pH 7.4; 140 mM NaCl; 2.5 mM CaCl2) after INH or control treatment for 48 hrs. To the collected cells was added 5 μl of Annexin V-FITC and 1 μl of propidium iodide (PI, […]). The cells were then gently vortexed and incubated for 15 minutes at room temperature in the dark. The samples were analyzed by flow cytometry after an additional 400 μl of binding buffer was added to each tube.

Aurora A = Aurora A expression in treated HeLa cells, western blot; assay type: cell-based; conditions: dose series
Protocol: INH-induced Nek2 degradation; INH-inhibition of Hec1 phosphorylation by Nek2. […] To evaluate whether INH treatment affected cell cycle profile or Nek2 mRNA level, we performed FACS and real-time PCR analysis.
Protein extraction and western blot analysis. The protein extractions and western blot analyses of Examples 4-6 were conducted as follows. Cell extracts were prepared and equal amounts of protein were separated by SDS-PAGE (10% w/v gel) followed by electrophoretic transfer to PVDF membranes (Millipore, Billerica, Mass.). After blocking with 5% w/v powdered non-fat milk, the membrane was incubated with different antibodies for overnight at 4° C. and treated for 1 hr with horseradish peroxidase-conjugated goat anti-mouse IgG and goat anti-rabbit IgG antibodies (GeneTex, Irvine, Calif.). ECL detection of the horseradish peroxidase reaction was performed according to the manufacturer's instructions (Millipore, Billerica, Mass.). Protein signal was measured on a LAS 4000 mini Imaging System (Fujifilm, Valhalla, N.Y.).

Structure (SMILES)	IC50 (HeLa) [nM]	IC50 (MB468) [nM]	IC50 (K562) [nM]	IC50 (HS27) [nM]	growth inhibitory effect on non-tumorgenic fibroblast cells (HS27)	tumor growth rate [1]	percentage of proliferating tumor cells (BrdU staining) [1]	phosphorylation of Hec1 at S165 in tumors [1]	chromosomal misalignment (HeLa cells [2])	multipolar spindle configurations in the mitotic population (HeLa cells [2]; time course)	percentage of apoptotic cells (HeLa cells [3]) [%]	expression of Aurora A (Aurora A)
Cc1cc(C)c(-c2csc(C(=O)c3ccncc3)n2)c(C)c1 [INH41, (4-mesitylthiazol-2-yl)(pyridin-4-yl)methanone]	670	690	620	62000	Neither INH41 nor INH154 had significant growth inhibitory effects	significantly slower	reduced	substantially reduced	increased chromosomal misalignment	aggravated in a time-dependent manner	17.4	not affected
Cc1cc(N2CCCCC2)cc(C)c1-c1csc(NC(=O)c2ccncc2)n1 [INH154, N-(4-(2,6-Dimethyl-4-(piperidin-1-yl)phenyl)thiazol-2-yl)isonicotinamide]			110	40000	Neither INH41 nor INH154 had significant growth inhibitory effects	significantly slower	reduced	substantially reduced	increased chromosomal misalignment		67.6	not affected
